System: human cortical neurons
Test: Compound toxicity to human cortical neurons in absence of Aβ1-40 (alamarBlue, 3 days)
Type: cell-based
Details: human, 4320 min
Method: Cultures of human cortical or hippocampal neurons were prepared using a modification of the procedure described in P. Seubert et al. (1992), Nature 359:325-327. Cortical or hippocampal tissue was dissociated by incubation in a trypsin/EDTA solution (0.05% trypsin +0.53 mM EDTA in HBSS; Gibco) for 20 minutes at 37° C. The trypsin was then inactivated by resuspending the cells in serum-containing medium (MEM/FBS): Modified Eagle's Medium (MEM) containing 1% glucose, 1 mM sodium pyruvate, 1 mM glutamine, and supplemented with 10% fetal bovine serum (Gibco). Cells were then pelleted by centrifugation and resuspended in a chemically-defined medium (MEM/B27): MEM containing B27 supplement (Gibco) in place of FBS. Polyethyleneimine (PEI)-coated 6.4-mm (96-well) dishes were rinsed once with MEM/FBS, and then seeded at 0.75-1.25×10^5 cells per well in 0.1 ml MEM/B27. Cultures were maintained in a H2 O-saturated incubator with an atmosphere of 95% air/5% CO2 at 37° C. The culture medium was exchanged twice weekly.
The alamarBlue™ assay incorporated a proprietary fluorometric/colorimetric metabolic indicator (Alamar Biosciences, Inc.). Viable cells convert alamarBlue™ from an oxidized (non-fluorescent, blue) form to a reduced (fluorescent, red) form. Assays were performed by replacing the culture media with a 10% alamarBlue™ solution in DMEM (rat cortical cultures) or MEM (human cortical cultures). Reduction of alamarBlue™ was determined spectrofluorometrically using a Millipore Cytofluor 2350 Scanner (excitation, […]; emission, 590 nm) and CytoCalc™ software (Millipore Corporation).
Human cortical neurons were treated with 50 μM Aβ1-40 and various inhibitors of PLA2 or PLC. Compounds were added at the time of Aβ1-40 treatment at concentrations 390 nM to 100 μM. Compounds were also added to neuronal cultures in the absence of Aβ1-40. Neuronal survival was determined after 3 days of treatment by alamarBlue®. IC50 is the dose of compound that inhibited Aβ-mediated neurotoxicity by 50%. […] Data represents the mean ± SD (n=3). ND, not detected at the concentration range used.

## CN(C(=O)/C=C/c1ccc(S(C)(=O)=O)cc1)c1ccc(S(=O)(=O)NC2CCCCCC2)cc1 [AN20606, N-cycloheptyl-4-[N-methyl-N-[(E)-3-(4-methylsulfonylphenyl)-2-propenoyl]amino]benzenesulfonamide]
  TD10 (concentration giving 10% loss of neuronal survival): 98 µM

From patent US5707821A, “Identification of phospholipase A2 inhibitors in Aβ peptide-mediated neurodegenerative disease” (priority 1995, dated 1998)
